Test system: HEV
Experiment: HEV RNA test in a human subject with HEV infection (case, Example 1)
Type: in vivo
Procedure: A human subject was identified as having AIDS, Kaposi's sarcoma, non-Hodgkin's lymphoma, compensated cirrhosis, and a history of alcoholism. An HEV RNA test of the subject was conducted, and the result was positive, at approximately 20,000 IU/mL. The subject was started on ribavirin monotherapy, wherein ribavirin was administered to the subject at 800 mg once per day. […] The subject was then started on a treatment wherein ribavirin administration was continued at 800 mg per day and sofosbuvir was also administered at 400 mg per day. After four weeks of such treatment, the subject's HEV RNA levels were below the lower limit of detection of about 25 IU/mL.

Structure (SMILES) | HEV status (ribavirin monotherapy 800 mg once per day for over one year, human subject, baseline HEV RNA approximately 20,000 IU/mL) | HEV RNA levels (sofosbuvir 400 mg per day together with continued ribavirin 800 mg per day, after four weeks, same subject, lower limit of detection about 25 IU/mL) [IU/mL]
NC(=O)c1ncn([C@@H]2O[C@H](CO)[C@@H](O)[C@H]2O)n1 [ribavirin] | remained HEV-positive | –
CC(C)OC(=O)[C@H](C)N[P@](=O)(OC[C@H]1O[C@@H](n2ccc(=O)[nH]c2=O)[C@](C)(F)[C@@H]1O)Oc1ccccc1 [sofosbuvir, (S)-isopropyl 2-(((S)-(((2R,3R,4R,5R)-5-(2,4-dioxo-3,4-dihydropyrimidin-1(2H)-yl)-4-fluoro-3-hydroxy-4-methyltetrahydrofuran-2-yl)methoxy)(phenoxy)phosphoryl)amino)propanoate] | – | < 25
